Test results reported in patent US12049450B2, “Pyridyloxy-carboxylate derivative and preparation method therefor, herbicidal composition, and use” (Qingdao Kingagroot Chemical Compound Co., Ltd., priority 2018, dated 2024).

Legend:
Assay in all cases: Post-emergence test experiment (greenhouse pot, spray at 2-3 leaf stage)
Assay type in all cases: in vivo
Details in all cases: 1000 g/ha; post-emergence spray at 2-3 leaf stage; assessed after 3 weeks; fresh weight inhibition rate
Abutilon theophrasti = test system: Abutilon theophrasti
Method in brief: (§1)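 Weed seeds sown in soil-filled pots in greenhouse, sprayed at 2-3 leaf stage (2 weeks after sowing) with compound in acetone/tween-80 plus methyl oleate emulsible concentrate (1.5 L/ha) diluted in water. Fresh-weight growth inhibition scored after 3 weeks on 0-5 scale (5: >85%, 0: <5%).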

Echinochloa crusgalli = test system: Echinochloa crusgalli
Method in brief: as §1

Galium spurium = test system: Galium spurium
Method in brief: as §1

Digitaria sanguinalis = test system: Digitaria sanguinalis
Method in brief: as §1

Monochoria vaginalis = test system: Monochoria vaginalis
Method in brief: as §1

SMILES | Activity level (growth inhibition rate) Abutilon theophrasti (Abutilon theophrasti) | Activity level (growth inhibition rate) Echinochloa crusgalli (Echinochloa crusgalli) | Activity level (growth inhibition rate) Galium spurium (Galium spurium) | Activity level (growth inhibition rate) Digitaria sanguinalis (Digitaria sanguinalis) | Activity level (growth inhibition rate) Monochoria Vaginalis (Monochoria vaginalis)
CC(Oc1nc(F)c(Cl)c(N)c1Cl)C(=O)SCc1ccc(C#N)cc1 (stereo not shown) [Compound 225] | 5 (Level 5: the growth inhibition rate is greater than 85%) | 5 (Level 5: the growth inhibition rate is greater than 85%) | 5 (Level 5: the growth inhibition rate is greater than 85%) | 5 (Level 5: the growth inhibition rate is greater than 85%) | 5 (Level 5: the growth inhibition rate is greater than 85%)
Cc1cc(COC(=O)C(C)Oc2nc(F)c(Cl)c(N)c2Cl)n(C)n1 (stereo not shown) [Compound 127] | 5 (Level 5: the growth inhibition rate is greater than 85%) | 5 (Level 5: the growth inhibition rate is greater than 85%) | 5 (Level 5: the growth inhibition rate is greater than 85%) | 5 (Level 5: the growth inhibition rate is greater than 85%) | 5 (Level 5: the growth inhibition rate is greater than 85%)
CC(Oc1nc(F)c(Cl)c(N)c1Cl)C(=O)OCc1cccc(-c2cccnc2)c1 (racemic) [Compound 115] | 5 (Level 5: the growth inhibition rate is greater than 85%) | 5 (Level 5: the growth inhibition rate is greater than 85%) | 5 (Level 5: the growth inhibition rate is greater than 85%) | 5 (Level 5: the growth inhibition rate is greater than 85%) | 5 (Level 5: the growth inhibition rate is greater than 85%)
CC(Oc1nc(F)c(Cl)c(N)c1Cl)C(=O)SC(C)c1ncon1 (stereo not shown) [Compound 150] | 5 (Level 5: the growth inhibition rate is greater than 85%) | 5 (Level 5: the growth inhibition rate is greater than 85%) | 5 (Level 5: the growth inhibition rate is greater than 85%) | 5 (Level 5: the growth inhibition rate is greater than 85%) | 5 (Level 5: the growth inhibition rate is greater than 85%)
CC(Oc1nc(F)c(Cl)c(N)c1Cl)C(=O)OCc1ccccc1C(F)(F)F (stereo not shown) [Compound 208] | 5 (Level 5: the growth inhibition rate is greater than 85%) | 5 (Level 5: the growth inhibition rate is greater than 85%) | 5 (Level 5: the growth inhibition rate is greater than 85%) | 5 (Level 5: the growth inhibition rate is greater than 85%) | 5 (Level 5: the growth inhibition rate is greater than 85%)
CC(Oc1nc(F)c(Cl)c(N)c1Cl)C(=O)SCc1ccccc1Cl (stereo not shown) [Compound 227] | 5 (Level 5: the growth inhibition rate is greater than 85%) | 5 (Level 5: the growth inhibition rate is greater than 85%) | 5 (Level 5: the growth inhibition rate is greater than 85%) | 5 (Level 5: the growth inhibition rate is greater than 85%) | 5 (Level 5: the growth inhibition rate is greater than 85%)
Cc1noc(C)c1COC(=O)C(C)Oc1nc(F)c(Cl)c(N)c1Cl (stereo not shown) [Compound 147] | 5 (Level 5: the growth inhibition rate is greater than 85%) | 5 (Level 5: the growth inhibition rate is greater than 85%) | 5 (Level 5: the growth inhibition rate is greater than 85%) | 5 (Level 5: the growth inhibition rate is greater than 85%) | 5 (Level 5: the growth inhibition rate is greater than 85%)
CC(Oc1nc(F)c(Cl)c(N)c1Cl)C(=O)SCc1cccc(C(=O)O)c1 (stereo not shown) [Compound 87] | 5 (Level 5: the growth inhibition rate is greater than 85%) | 5 (Level 5: the growth inhibition rate is greater than 85%) | 5 (Level 5: the growth inhibition rate is greater than 85%) | 5 (Level 5: the growth inhibition rate is greater than 85%) | 5 (Level 5: the growth inhibition rate is greater than 85%)
CC(Oc1nc(F)c(Cl)c(N)c1Cl)C(=O)OCc1cccc(C#N)c1 (stereo not shown) [Compound 201] | 5 (Level 5: the growth inhibition rate is greater than 85%) | 5 (Level 5: the growth inhibition rate is greater than 85%) | 5 (Level 5: the growth inhibition rate is greater than 85%) | 5 (Level 5: the growth inhibition rate is greater than 85%) | 5 (Level 5: the growth inhibition rate is greater than 85%)
CC(Oc1nc(F)c(Cl)c(N)c1Cl)C(=O)OCc1cc([N+](=O)[O-])ccc1F (stereo not shown) [Compound 86] | 5 (Level 5: the growth inhibition rate is greater than 85%) | 5 (Level 5: the growth inhibition rate is greater than 85%) | 5 (Level 5: the growth inhibition rate is greater than 85%) | 5 (Level 5: the growth inhibition rate is greater than 85%) | 5 (Level 5: the growth inhibition rate is greater than 85%)
COC(=O)Nc1cccc(CCOC(=O)C(C)Oc2nc(F)c(Cl)c(N)c2Cl)c1 (stereo not shown) [Compound 107] | 5 (Level 5: the growth inhibition rate is greater than 85%) | 5 (Level 5: the growth inhibition rate is greater than 85%) | 5 (Level 5: the growth inhibition rate is greater than 85%) | 5 (Level 5: the growth inhibition rate is greater than 85%) | 5 (Level 5: the growth inhibition rate is greater than 85%)
CC(Oc1nc(F)c(Cl)c(N)c1Cl)C(=O)OCc1ccc2ccccc2c1 (stereo not shown) [Compound 181] | 5 (Level 5: the growth inhibition rate is greater than 85%) | 5 (Level 5: the growth inhibition rate is greater than 85%) | 5 (Level 5: the growth inhibition rate is greater than 85%) | 5 (Level 5: the growth inhibition rate is greater than 85%) | 5 (Level 5: the growth inhibition rate is greater than 85%)
Cc1nc2cc(COC(=O)C(C)Oc3nc(F)c(Cl)c(N)c3Cl)ccc2o1 (stereo not shown) [Compound 175] | 5 (Level 5: the growth inhibition rate is greater than 85%) | 5 (Level 5: the growth inhibition rate is greater than 85%) | 5 (Level 5: the growth inhibition rate is greater than 85%) | 5 (Level 5: the growth inhibition rate is greater than 85%) | 5 (Level 5: the growth inhibition rate is greater than 85%)
CCC(=O)Cc1ccc(CSC(=O)C(C)Oc2nc(F)c(Cl)c(N)c2Cl)cc1 (stereo not shown) [Compound 103] | 5 (Level 5: the growth inhibition rate is greater than 85%) | 5 (Level 5: the growth inhibition rate is greater than 85%) | 5 (Level 5: the growth inhibition rate is greater than 85%) | 5 (Level 5: the growth inhibition rate is greater than 85%) | 5 (Level 5: the growth inhibition rate is greater than 85%)
CC(Oc1nc(F)c(Cl)c(N)c1Cl)C(=O)OCc1cccc(OCC(F)(F)F)c1 (stereo not shown) [Compound 96] | 5 (Level 5: the growth inhibition rate is greater than 85%) | 5 (Level 5: the growth inhibition rate is greater than 85%) | 5 (Level 5: the growth inhibition rate is greater than 85%) | 5 (Level 5: the growth inhibition rate is greater than 85%) | 5 (Level 5: the growth inhibition rate is greater than 85%)
CC(Oc1nc(F)c(Cl)c(N)c1Cl)C(=O)OCc1ccc2cnccc2c1 (stereo not shown) [Compound 184] | 5 (Level 5: the growth inhibition rate is greater than 85%) | 5 (Level 5: the growth inhibition rate is greater than 85%) | 5 (Level 5: the growth inhibition rate is greater than 85%) | 5 (Level 5: the growth inhibition rate is greater than 85%) | 5 (Level 5: the growth inhibition rate is greater than 85%)
CCOCc1cccc(C(C)OC(=O)C(C)Oc2nc(F)c(Cl)c(N)c2Cl)c1 (stereo not shown) [Compound 100] | 5 (Level 5: the growth inhibition rate is greater than 85%) | 5 (Level 5: the growth inhibition rate is greater than 85%) | 5 (Level 5: the growth inhibition rate is greater than 85%) | 5 (Level 5: the growth inhibition rate is greater than 85%) | 5 (Level 5: the growth inhibition rate is greater than 85%)
